Test [1] has as its target T1, adenosine A1 receptor (hA1R) (Homo sapiens, UniProt P30542).
T1 construct: gene ADORA1; membrane homogenates of stably transfected CHO-K1 cells
T1 sequence (P30542 1-326): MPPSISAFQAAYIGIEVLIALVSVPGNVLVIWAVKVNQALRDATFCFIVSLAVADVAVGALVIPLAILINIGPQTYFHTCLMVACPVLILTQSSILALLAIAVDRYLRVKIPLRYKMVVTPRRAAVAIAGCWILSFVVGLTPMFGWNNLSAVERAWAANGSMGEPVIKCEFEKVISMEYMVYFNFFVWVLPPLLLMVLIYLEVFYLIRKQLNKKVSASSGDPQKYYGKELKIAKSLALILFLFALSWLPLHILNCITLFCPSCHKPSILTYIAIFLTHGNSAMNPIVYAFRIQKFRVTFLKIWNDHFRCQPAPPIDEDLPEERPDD
Kind of test: radioligand displacement with [3H]DPCPX. The class given is binding. For orientation: Displacement assays read how much labelled ligand stays bound in the presence of the test substance.

In test [2] the target is T2, adenosine A2A receptor (hA2AR) (Homo sapiens, UniProt P29274).
T2 construct: gene ADORA2A; membrane homogenates of stably transfected CHO-K1 cells
Kind of test: radioligand displacement with [3H]ZM241385. The class given is binding.

The structures appear in SMILES notation.

T2 sequence (P29274 whole entry): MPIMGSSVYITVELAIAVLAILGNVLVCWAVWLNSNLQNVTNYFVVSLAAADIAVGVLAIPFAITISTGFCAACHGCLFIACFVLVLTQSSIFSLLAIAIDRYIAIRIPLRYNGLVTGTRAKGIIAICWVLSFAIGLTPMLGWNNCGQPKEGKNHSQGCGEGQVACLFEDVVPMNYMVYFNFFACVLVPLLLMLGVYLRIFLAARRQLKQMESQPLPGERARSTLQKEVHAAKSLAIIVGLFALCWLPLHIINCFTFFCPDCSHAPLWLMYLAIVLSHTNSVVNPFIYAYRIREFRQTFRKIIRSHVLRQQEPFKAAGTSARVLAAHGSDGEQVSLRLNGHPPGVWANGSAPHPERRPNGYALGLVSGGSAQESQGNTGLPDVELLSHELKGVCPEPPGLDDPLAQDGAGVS

Turning to `Nc1nc2c(cnn2CCCc2ccc(OCCF)cc2)c2nc(-c3ccco3)nn12` [FESCH], the values for the inhibitory constant (Ki) in test [1] and in test [2] were 203 ± 40 nM and 0.6 ± 0.1 nM, respectively.

A word on the Ki: it is the dissociation constant of the complex between target and ligand, obtained from inhibition or displacement.

The record behind these values is paper PMC7180622, “PET Imaging of the Adenosine A2A Receptor in the Rotenone-Based Mouse Model of Parkinson’s Disease with [^18F]FESCH Synthesized by a Simplified Two-Step One-Pot Radiolabeling Strategy” (Molecules, 2020).
